The source made the active and inactive calls. The calls are words filed in the database; no cut-off is given here.
Legend:
[1] = Inhibition of KHS2 Lys1 labeling site in human Huh-7 cell lysate at 1 uM by KiNativ Profiling analysis relative to control; conditions: condition cancer
[2] = molecular target: Calcium/calmodulin-dependent protein kinase type II subunit gamma (Homo sapiens) (UniProt Q13555); assay: Inhibition of CaMK2g Lys1 labeling site harbouring TSTQEYAAKIINTKK in human Huh-7 cells at 1 uM by KiNativ Profiling analysis relative to control; assay type: cell-based
[3] = molecular target: T1, Inhibitor of nuclear factor kappa-B kinase subunit beta (Homo sapiens) (UniProt O14920); assay: Inhibition of IKKb Lys2 labeling site in human Huh-7 cell lysate at 1 uM by KiNativ Profiling analysis relative to control; assay type: subcellular
T1 sequence (whole entry): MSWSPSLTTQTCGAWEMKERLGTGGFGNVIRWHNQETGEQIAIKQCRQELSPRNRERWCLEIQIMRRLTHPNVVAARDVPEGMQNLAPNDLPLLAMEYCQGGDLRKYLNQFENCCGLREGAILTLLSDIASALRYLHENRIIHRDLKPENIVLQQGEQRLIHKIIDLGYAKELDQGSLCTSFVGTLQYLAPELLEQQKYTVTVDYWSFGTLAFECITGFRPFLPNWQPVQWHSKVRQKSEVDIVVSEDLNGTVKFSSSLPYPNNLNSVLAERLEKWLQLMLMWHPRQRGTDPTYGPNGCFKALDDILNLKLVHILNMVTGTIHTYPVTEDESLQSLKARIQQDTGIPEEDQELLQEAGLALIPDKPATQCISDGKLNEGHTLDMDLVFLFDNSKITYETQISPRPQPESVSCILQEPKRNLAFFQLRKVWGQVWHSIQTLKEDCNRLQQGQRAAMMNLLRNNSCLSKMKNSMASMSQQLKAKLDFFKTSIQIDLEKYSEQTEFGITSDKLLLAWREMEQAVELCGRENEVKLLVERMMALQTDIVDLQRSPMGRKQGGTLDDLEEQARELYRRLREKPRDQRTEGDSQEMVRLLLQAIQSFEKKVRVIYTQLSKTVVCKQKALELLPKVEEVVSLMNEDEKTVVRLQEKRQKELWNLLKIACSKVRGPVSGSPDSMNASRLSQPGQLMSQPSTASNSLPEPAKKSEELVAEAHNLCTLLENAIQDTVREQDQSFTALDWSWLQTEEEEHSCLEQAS

[4] = molecular target: T2, Phosphatidylinositol 5-phosphate 4-kinase type-2 alpha (Homo sapiens) (UniProt P48426); assay: Inhibition of PIP4K2A ATP labeling site harbouring AKELPTLKDNDFINEGQK in human Huh-7 cells at 1 uM by KiNativ Profiling analysis relative to control; assay type: cell-based
T2 sequence (whole entry): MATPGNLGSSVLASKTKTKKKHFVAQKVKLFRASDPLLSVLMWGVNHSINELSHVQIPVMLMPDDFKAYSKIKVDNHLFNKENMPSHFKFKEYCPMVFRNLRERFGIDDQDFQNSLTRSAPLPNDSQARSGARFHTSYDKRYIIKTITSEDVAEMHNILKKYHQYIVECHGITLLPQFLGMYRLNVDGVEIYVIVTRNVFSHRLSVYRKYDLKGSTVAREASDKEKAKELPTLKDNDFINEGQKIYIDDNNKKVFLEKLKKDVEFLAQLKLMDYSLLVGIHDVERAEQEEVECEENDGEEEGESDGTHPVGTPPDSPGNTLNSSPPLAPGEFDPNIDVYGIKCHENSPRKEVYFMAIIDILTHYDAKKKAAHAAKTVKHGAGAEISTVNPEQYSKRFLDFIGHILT

[5] = molecular target: Serine/threonine-protein kinase 35 (Homo sapiens) (UniProt Q8TDR2); assay: Inhibition of STK35 (unknown origin) at 1 uM by Ambit Kinomescan binding assay relative to control
[6] = molecular target: Mitogen-activated protein kinase kinase kinase 10 (Homo sapiens) (UniProt Q02779); assay: Inhibition of MLK2 (unknown origin) at 1 uM by Ambit Kinomescan binding assay relative to control; values are per cent of control
[7] = molecular target: Ephrin type-B receptor 6 (Homo sapiens) (UniProt O15197); assay: Inhibition of EPHB6 (unknown origin) at 1 uM by Ambit Kinomescan binding assay relative to control; values are per cent of control
[8] = molecular target: Ephrin type-B receptor 3 (Homo sapiens) (UniProt P54753); assay: Inhibition of EPHB3 (unknown origin) at 1 uM by Ambit Kinomescan binding assay relative to control; values are per cent of control
[9] = test system: Tyrosine-protein kinase ABL1 (Homo sapiens), P00519 [F317I]; assay: Inhibition of nonphosphorylated ABL1 F317I mutant (unknown origin) at 1 uM by Ambit Kinomescan binding assay relative to control
[10] = molecular target: 1-phosphatidylinositol 3-phosphate 5-kinase (Homo sapiens) (UniProt Q9Y2I7); assay: Inhibition of PIP5K3 ATP labeling site in human Huh-7 cells at 1 uM by KiNativ Profiling analysis relative to control; assay type: cell-based
[11] = molecular target: T3, Serine/threonine-protein kinase STK11 (Homo sapiens) (UniProt Q15831); assay: Inhibition of LKB1 (unknown origin) at 10 uM by Ambit Kinomescan binding assay
T3 sequence (whole entry): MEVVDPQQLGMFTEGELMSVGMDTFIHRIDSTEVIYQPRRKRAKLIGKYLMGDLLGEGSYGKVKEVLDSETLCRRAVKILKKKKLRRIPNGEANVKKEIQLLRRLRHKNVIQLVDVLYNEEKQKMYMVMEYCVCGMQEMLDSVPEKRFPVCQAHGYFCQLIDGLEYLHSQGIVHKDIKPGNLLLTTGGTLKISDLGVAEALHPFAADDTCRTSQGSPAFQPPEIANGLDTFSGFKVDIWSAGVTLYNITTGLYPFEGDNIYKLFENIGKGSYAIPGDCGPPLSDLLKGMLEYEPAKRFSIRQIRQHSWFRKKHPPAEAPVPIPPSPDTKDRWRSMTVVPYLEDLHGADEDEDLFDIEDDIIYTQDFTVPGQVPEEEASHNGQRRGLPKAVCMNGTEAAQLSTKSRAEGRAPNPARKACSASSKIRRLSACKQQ

[12] = molecular target: T4, Dual specificity mitogen-activated protein kinase kinase 6 (Homo sapiens) (UniProt P52564); assay: Inhibition of MAP2K6 K2 labeling site in human Huh-7 cells at 10 uM by KiNativ Profiling analysis relative to control; assay type: cell-based
T4 sequence (whole entry): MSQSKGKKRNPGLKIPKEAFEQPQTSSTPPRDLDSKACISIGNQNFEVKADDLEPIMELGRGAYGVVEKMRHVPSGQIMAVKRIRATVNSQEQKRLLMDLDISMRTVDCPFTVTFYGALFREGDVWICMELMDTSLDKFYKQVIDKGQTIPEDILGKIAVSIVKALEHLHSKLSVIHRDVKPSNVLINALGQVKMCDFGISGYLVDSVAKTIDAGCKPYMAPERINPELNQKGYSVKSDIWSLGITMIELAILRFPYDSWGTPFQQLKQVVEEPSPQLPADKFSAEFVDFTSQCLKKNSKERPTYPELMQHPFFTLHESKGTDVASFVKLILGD

Chain of Ephrin type-B receptor 6 (Homo sapiens) (O15197 whole entry): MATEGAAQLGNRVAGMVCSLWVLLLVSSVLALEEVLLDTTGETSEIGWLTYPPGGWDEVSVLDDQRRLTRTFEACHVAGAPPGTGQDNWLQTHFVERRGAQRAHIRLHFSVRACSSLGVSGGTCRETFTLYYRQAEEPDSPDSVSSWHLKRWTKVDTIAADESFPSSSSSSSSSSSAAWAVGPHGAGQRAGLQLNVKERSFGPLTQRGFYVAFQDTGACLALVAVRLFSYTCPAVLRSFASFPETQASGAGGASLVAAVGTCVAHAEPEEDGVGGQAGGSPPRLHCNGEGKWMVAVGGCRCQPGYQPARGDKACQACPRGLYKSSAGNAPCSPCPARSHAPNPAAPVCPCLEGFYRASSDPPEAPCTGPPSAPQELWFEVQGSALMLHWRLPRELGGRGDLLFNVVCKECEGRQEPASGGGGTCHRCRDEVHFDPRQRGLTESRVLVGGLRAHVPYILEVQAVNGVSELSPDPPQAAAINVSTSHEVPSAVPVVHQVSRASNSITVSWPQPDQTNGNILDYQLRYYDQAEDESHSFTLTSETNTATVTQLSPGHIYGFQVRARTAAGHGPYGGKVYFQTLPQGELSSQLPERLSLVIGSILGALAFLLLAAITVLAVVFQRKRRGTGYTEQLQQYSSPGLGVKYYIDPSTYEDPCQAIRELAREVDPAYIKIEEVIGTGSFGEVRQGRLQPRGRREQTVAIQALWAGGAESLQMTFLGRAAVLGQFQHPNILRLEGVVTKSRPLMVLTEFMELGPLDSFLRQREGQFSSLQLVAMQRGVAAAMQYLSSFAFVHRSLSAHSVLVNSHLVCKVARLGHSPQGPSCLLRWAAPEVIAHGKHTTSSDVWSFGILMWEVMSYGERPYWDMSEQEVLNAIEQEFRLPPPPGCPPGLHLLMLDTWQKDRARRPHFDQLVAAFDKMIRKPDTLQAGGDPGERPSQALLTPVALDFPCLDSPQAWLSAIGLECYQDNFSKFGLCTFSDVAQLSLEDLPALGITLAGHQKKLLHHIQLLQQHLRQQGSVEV
Chain of Tyrosine-protein kinase ABL1 (Homo sapiens), P00519 [F317I] (P00519 whole entry F317I): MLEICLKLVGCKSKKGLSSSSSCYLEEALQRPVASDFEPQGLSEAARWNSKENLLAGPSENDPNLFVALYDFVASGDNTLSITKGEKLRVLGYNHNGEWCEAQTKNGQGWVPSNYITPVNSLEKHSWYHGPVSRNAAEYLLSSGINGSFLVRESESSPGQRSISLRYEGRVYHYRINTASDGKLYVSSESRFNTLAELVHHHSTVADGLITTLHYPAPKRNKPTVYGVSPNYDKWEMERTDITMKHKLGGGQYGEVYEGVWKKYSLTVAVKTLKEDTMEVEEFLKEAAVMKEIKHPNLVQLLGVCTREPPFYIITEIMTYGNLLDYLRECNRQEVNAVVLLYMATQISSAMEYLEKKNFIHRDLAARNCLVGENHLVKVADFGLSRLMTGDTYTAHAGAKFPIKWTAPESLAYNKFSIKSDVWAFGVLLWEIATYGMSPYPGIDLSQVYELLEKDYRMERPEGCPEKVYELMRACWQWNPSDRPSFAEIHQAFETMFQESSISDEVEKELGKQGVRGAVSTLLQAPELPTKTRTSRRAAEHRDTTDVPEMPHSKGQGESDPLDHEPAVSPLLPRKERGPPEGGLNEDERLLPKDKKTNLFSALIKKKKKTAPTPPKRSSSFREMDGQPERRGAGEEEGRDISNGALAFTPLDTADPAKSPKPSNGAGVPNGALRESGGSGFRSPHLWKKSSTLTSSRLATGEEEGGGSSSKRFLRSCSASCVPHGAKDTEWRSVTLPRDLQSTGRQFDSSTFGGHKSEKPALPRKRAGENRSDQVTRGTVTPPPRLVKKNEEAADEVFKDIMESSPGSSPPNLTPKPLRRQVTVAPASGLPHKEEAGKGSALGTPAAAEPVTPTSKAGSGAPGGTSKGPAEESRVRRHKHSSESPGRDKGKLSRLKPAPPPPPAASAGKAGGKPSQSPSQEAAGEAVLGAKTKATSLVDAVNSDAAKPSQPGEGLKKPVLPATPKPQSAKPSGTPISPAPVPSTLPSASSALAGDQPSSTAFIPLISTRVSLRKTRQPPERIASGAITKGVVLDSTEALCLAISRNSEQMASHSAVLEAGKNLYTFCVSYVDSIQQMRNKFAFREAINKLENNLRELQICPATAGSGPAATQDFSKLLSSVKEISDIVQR
Chain of Serine/threonine-protein kinase 35 (Homo sapiens) (Q8TDR2 whole entry): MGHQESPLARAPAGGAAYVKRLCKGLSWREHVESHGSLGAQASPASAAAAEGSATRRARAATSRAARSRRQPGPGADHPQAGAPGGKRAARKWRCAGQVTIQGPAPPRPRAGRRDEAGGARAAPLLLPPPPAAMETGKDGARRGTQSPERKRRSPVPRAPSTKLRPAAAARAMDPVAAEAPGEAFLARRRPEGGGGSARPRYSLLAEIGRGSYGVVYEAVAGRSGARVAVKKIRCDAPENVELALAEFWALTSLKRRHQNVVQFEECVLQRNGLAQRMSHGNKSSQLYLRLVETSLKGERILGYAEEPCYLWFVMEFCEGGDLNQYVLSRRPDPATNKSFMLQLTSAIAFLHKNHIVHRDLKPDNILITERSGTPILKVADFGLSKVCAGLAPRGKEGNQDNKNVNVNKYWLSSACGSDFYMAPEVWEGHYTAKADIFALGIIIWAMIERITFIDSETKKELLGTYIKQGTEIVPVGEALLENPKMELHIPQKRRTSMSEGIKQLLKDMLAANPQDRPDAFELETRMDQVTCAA
Chain of Calcium/calmodulin-dependent protein kinase type II subunit gamma (Homo sapiens) (Q13555 whole entry): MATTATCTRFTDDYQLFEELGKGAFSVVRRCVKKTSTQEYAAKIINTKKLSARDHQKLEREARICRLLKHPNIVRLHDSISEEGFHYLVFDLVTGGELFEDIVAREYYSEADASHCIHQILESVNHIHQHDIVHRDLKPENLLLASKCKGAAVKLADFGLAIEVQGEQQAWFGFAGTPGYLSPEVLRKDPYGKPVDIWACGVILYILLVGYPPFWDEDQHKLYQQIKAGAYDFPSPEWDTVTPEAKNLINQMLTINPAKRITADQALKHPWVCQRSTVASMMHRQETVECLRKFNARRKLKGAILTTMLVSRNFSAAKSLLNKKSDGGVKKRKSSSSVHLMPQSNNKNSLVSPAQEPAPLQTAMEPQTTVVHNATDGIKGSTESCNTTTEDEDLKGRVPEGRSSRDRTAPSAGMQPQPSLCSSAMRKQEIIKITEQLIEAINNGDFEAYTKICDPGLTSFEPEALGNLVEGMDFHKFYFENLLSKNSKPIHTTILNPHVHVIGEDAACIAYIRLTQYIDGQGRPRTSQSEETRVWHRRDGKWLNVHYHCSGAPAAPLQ
Chain of Mitogen-activated protein kinase kinase kinase 10 (Homo sapiens) (Q02779 whole entry, looked up): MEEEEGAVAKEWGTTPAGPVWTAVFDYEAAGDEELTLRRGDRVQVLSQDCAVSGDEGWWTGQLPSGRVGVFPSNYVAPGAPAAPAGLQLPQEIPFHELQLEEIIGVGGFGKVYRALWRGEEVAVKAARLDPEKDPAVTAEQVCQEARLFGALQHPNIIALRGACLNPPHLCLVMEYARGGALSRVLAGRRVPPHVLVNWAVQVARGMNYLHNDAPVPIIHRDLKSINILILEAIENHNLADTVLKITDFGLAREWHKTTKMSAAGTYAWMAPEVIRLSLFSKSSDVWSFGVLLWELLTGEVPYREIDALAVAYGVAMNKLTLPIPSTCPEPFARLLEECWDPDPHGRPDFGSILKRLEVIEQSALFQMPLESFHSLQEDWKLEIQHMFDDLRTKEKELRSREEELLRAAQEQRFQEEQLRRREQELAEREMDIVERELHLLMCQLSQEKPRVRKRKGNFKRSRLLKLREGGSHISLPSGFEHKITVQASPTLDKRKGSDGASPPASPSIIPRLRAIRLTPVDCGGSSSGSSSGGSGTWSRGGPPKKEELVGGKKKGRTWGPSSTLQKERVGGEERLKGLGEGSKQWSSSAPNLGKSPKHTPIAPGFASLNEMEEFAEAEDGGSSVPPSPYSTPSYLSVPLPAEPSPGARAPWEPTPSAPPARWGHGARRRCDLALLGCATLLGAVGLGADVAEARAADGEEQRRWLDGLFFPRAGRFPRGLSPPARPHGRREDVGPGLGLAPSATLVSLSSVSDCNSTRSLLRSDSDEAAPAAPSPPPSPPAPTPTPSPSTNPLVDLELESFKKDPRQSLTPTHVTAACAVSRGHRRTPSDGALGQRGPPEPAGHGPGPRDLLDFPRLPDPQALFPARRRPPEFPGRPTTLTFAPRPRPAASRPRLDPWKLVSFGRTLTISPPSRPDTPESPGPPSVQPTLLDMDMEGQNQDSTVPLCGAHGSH

With `CNc1cc(Oc2cc(C(=O)Nc3cc(N4CCN(C)CC4)cc(C(F)(F)F)c3)ccc2C)ncn1` the inhibition at 1 µM [1] was 0.9%, the inhibition [2] was 31.8% and the inhibition [3] was -5.1%. It also gave an inhibition [4] of 13.4%.
Work on `CCN1CCN(Cc2ccc(NC(=O)c3ccc(C)c(/C=C/c4cnc5[nH]ccc5c4OC)c3)cc2C(F)(F)F)CC1` yielded an inhibition [5] of 65%, a residual activity [6] of 53% and a residual activity [7] of 2.8%. The residual activity [8] was 63% and the inhibition [9] was 19%.
With `CCN1CCN(Cc2ccc(NC(=O)c3ccc(C)c(Oc4ccnc5[nH]ccc45)c3)cc2C(F)(F)F)CC1` the inhibition [10] was -3.1%, the inhibition [11] was “inactive” and the inhibition [12] was 19.3%.

Reference: ChEMBL document CHEMBL5696442, “Discovery of type II inhibitors of TGFβ-activated kinase 1 (TAK1) and mitogen-activated protein kinase kinase kinase kinase 2 (MAP4K2)” (J Med Chem, 2015)
